Measured values as given in publication PMC9393165 (Scientific Reports, 2022).
Marks after values point to notes of the source that are not given here.

What was measured:
[1] = Proportions of kidney transplant recipients with subtherapeutic or supratherapeutic tacrolimus trough concentration; format: in vivo, human
Protocol: All participants received oral, immediate-release tacrolimus (Prograf®; Astellas, Kerry, Ireland). According to Siriraj Hospital protocol, the initial dose (0.05 mg/kg every 12 h) of tacrolimus was started 2 days before KT (day − 2) and subsequently adjusted after KT based on efficacy and toxicity and to maintain morning trough concentrations of 7 to 10 ng/mL in standard risk patients and 10 to 12 ng/mL in high-risk patients during the first week after transplantation. Participants also received either mycophenolate mofetil (Cellcept®; F Hoffmann-La Roche Ltd, Basel, Switzerland or Immucept®; Intas Pharmaceuticals Ltd., Gujarat, India) or mycophenolate sodium (Myfortic®; Novartis Pharma Stein, Switzerland for Novartis AG, Basel, Switzerland) at the dosage equivalent to 2 g/day of mycophenolate mofetil. A tapered corticosteroid regimen was administered consisting of an intravenous bolus of 500 mg of methylprednisolone (Solu-medrol®; Novartis Pharma Stein, Switzerland for Novartis AG, Basel, Switzerland) on day 0, 250 mg on day 1, 125 mg on day 2 followed by 40 mg/day of prednisolone on day 4 after KT. The subsequent prednisolone doses were gradually tapered thereafter. Induction therapy with basiliximab (Simulect®; Novartis Pharma AG, Basel, Switzerland) was allowed.
On day 7 post-KT, after the tacrolimus dosage was stable for at least 48 h, venous blood samples (5 mL) were collected at pre-dose and 1, 2, 4, 6, 8 and 12 h after the morning dose of tacrolimus. Samples were collected in EDTA tubes and stored at 4 degrees Celsius until analysis. Whole blood tacrolimus concentrations were determined within the same day of blood collection by using a chemiluminescent microparticle immunoassay method with […] system® i2000 (Abbott, Abbott Diagnostic, USA). The method was linear in the concentration range up to 30 ng/mL, the limits of quantification were 0.8 ng/mL, and the coefficient of variation of within run precision and between run precision were less than 10%. Mean recovery was 100 ± 10% according to the manufacturer’s information.
The primary outcome measure was AUC/D at day 7 post-KT. […]

[2] = Clinical outcomes after kidney transplantation (hypotension, DGF, BPAR, post-transplant diabetes, tremor); format: in vivo, human
Protocol: For calculation of AUC/D and C0/D, values of AUC and C0 were dose-adjusted by dividing the observed values by the dose recorded on the day of blood collection. Early-morning blood pressures were measured on the same day of blood collection for pharmacokinetic analysis by a ward nurse as part of a routine examination, during rest in a seated position with a calibrated and well-maintained automatic sphygmomanometer. Delayed graft function (DGF) was defined as failure of the kidney graft to function immediately, with the need for dialysis in the first 7 days post-KT. Episode of biopsy-proven acute rejection (BPAR) during 3 months post-KT was diagnosed based on histologic findings in indication kidney graft biopsy according to Banff 2015 criteria.

[3] = day 1 post-transplantation, CYP3A5 expressers, diltiazem (n = 11)
[4] = day 1 post-transplantation, CYP3A5 expressers, placebo (n = 12)
[5] = day 1 post-transplantation, CYP3A5 non-expressers, diltiazem (n = 9)
[6] = day 1 post-transplantation, CYP3A5 non-expressers, placebo (n = 8)
[7] = day 1 post-transplantation, total (n = 40)
[8] = day 3 post-transplantation, CYP3A5 expressers, diltiazem (n = 11)
[9] = day 3 post-transplantation, CYP3A5 expressers, placebo (n = 12)
[10] = day 3 post-transplantation, CYP3A5 non-expressers, diltiazem (n = 9)
[11] = day 3 post-transplantation, CYP3A5 non-expressers, placebo (n = 8)
[12] = day 3 post-transplantation, total (n = 40)
[13] = day 5 post-transplantation, CYP3A5 expressers, diltiazem (n = 11)
[14] = day 5 post-transplantation, CYP3A5 expressers, placebo (n = 12)
[15] = day 5 post-transplantation, CYP3A5 non-expressers, diltiazem (n = 9)
[16] = day 5 post-transplantation, CYP3A5 non-expressers, placebo (n = 8)
[17] = day 5 post-transplantation, total (n = 40)
[18] = day 7 post-transplantation, CYP3A5 expressers, diltiazem (n = 11)
[19] = day 7 post-transplantation, CYP3A5 expressers, placebo (n = 12)
[20] = day 7 post-transplantation, CYP3A5 non-expressers, diltiazem (n = 9)
[21] = day 7 post-transplantation, CYP3A5 non-expressers, placebo (n = 8)
[22] = day 7 post-transplantation, total (n = 40)

In the case of `C=CC[C@@H]1/C=C(\C)C[C@H](C)C[C@H](OC)[C@H]2O[C@@](O)(C(=O)C(=O)N3CCCC[C@H]3C(=O)O[C@H](/C(C)=C/[C@@H]3CC[C@@H](O)[C@H](OC)C3)[C@H](C)[C@@H](O)CC1=O)[C@H](C)C[C@@H]2OC` [Tacrolimus], the “Trough concentration higher than 15 ng/mL” value [1, 3] is reported as 1 (9.1) n (%), the “Trough concentration lower than 5 ng/mL” value [1, 3] is reported as 0 (0) n (%) and the “Trough concentration lower than the target range” value [1, 3] is reported as 1 (9.1) n (%). The “Trough concentration higher than 15 ng/mL” value [1, 4] was 0 (0) n (%), the “Trough concentration lower than 5 ng/mL” value [1, 4] was 4 (33.3) n (%) and the “Trough concentration lower than the target range” value [1, 4] was 7 (58.3) n (%). For the same compound, the “Trough concentration higher than 15 ng/mL” value [1, 5] was 3 (33.3) n (%), the “Trough concentration lower than 5 ng/mL” value [1, 5] was 1 (11.1) n (%) and the “Trough concentration lower than the target range” value [1, 5] was 2 (22.2) n (%). The “Trough concentration higher than 15 ng/mL” value [1, 6] was 3 (37.5) n (%), the “Trough concentration lower than 5 ng/mL” value [1, 6] was 1 (12.5) n (%) and the “Trough concentration lower than the target range” value [1, 6] was 2 (25.0) n (%). The “Trough concentration higher than 15 ng/mL” value [1, 7] was 7 (17.5) n (%), the “Trough concentration lower than 5 ng/mL” value [1, 7] was 6 (15.0) n (%) and the “Trough concentration lower than the target range” value [1, 7] was 12 (30.0) n (%). For the same compound, the “Trough concentration lower than 5 ng/mL” value ([1]; day 3 post-transplantation, CYP3A5 expressers, diltiazem (EXdtz, n = 11)) was 1 (9.1) n (%), the “Trough concentration lower than 5 ng/mL” value ([1]; day 3 post-transplantation, CYP3A5 expressers, diltiazem (EXdtz, n = 11), listed as tacrolimus) was “one” and the “Trough concentration higher than 15 ng/mL” value [1, 8] was 0 (0) n (%). For the same compound, the “Trough concentration lower than the target range” value [1, 8] was 2 (18.2)^b n (%), the “Trough concentration lower than 5 ng/mL” value ([1]; day 3 post-transplantation, CYP3A5 expressers, placebo (EXplb, n = 12)) was 4 (33.3) n (%) and the “Trough concentration lower than 5 ng/mL” value ([1]; day 3 post-transplantation, CYP3A5 expressers, placebo (EXplb, n = 12), listed as tacrolimus) was “four”. For the same compound, the “Trough concentration higher than 15 ng/mL” value [1, 9] was 0 (0) n (%), the “Trough concentration lower than the target range” value [1, 9] was 8 (66.7) n (%) and the “Trough concentration lower than 5 ng/mL” value ([1]; day 3 post-transplantation, CYP3A5 non-expressers, diltiazem (NEdtz, n = 9)) was 0 (0) n (%). For the same compound, the “Trough concentration lower than 5 ng/mL” value ([1]; day 3 post-transplantation, CYP3A5 non-expressers, diltiazem (NEdtz, n = 9), listed as tacrolimus) was “none”, the “Trough concentration higher than 15 ng/mL” value [1, 10] was 0 (0) n (%) and the “Trough concentration lower than the target range” value [1, 10] was 0 (0)^b n (%). The “Trough concentration lower than 5 ng/mL” value ([1]; day 3 post-transplantation, CYP3A5 non-expressers, placebo (NEplb, n = 8)) was 0 (0) n (%), the “Trough concentration lower than 5 ng/mL” value ([1]; day 3 post-transplantation, CYP3A5 non-expressers, placebo (NEplb, n = 8), listed as tacrolimus) was “none” and the “Trough concentration higher than 15 ng/mL” value [1, 11] was 1 (12.5) n (%). For the same compound, the “Trough concentration lower than the target range” value [1, 11] was 0 (0)^b n (%), the “Trough concentration higher than 15 ng/mL” value [1, 12] was 1 (2.5) n (%) and the “Trough concentration lower than 5 ng/mL” value [1, 12] was 5 (12.5) n (%). For the same compound, the “Trough concentration lower than the target range” value [1, 12] was 10 (25.0) n (%), the “Trough concentration higher than 15 ng/mL” value [1, 13] was 0 (0) n (%) and the “Trough concentration lower than 5 ng/mL” value [1, 13] was 1 (9.1) n (%). For the same compound, the “Trough concentration lower than the target range” value [1, 13] was 7 (63.6) n (%), the “Trough concentration higher than 15 ng/mL” value [1, 14] was 0 (0) n (%) and the “Trough concentration lower than 5 ng/mL” value [1, 14] was 1 (8.3) n (%). The “Trough concentration lower than the target range” value [1, 14] was 7 (58.3) n (%), the “Trough concentration higher than 15 ng/mL” value [1, 15] was 0 (0) n (%) and the “Trough concentration lower than 5 ng/mL” value [1, 15] was 0 (0) n (%). For the same compound, the “Trough concentration lower than the target range” value [1, 15] was 2 (22.2) n (%), the “Trough concentration higher than 15 ng/mL” value [1, 16] was 0 (0) n (%) and the “Trough concentration lower than 5 ng/mL” value [1, 16] was 2 (25.0) n (%). The “Trough concentration lower than the target range” value [1, 16] was 2 (25.0) n (%), the “Trough concentration higher than 15 ng/mL” value [1, 17] was 0 (0) n (%) and the “Trough concentration lower than 5 ng/mL” value [1, 17] was 4 (10.0) n (%). The “Trough concentration lower than the target range” value [1, 17] was 18 (45.0) n (%), the “Trough concentration higher than 15 ng/mL” value [1, 18] was 0 (0) n (%) and the “Trough concentration lower than 5 ng/mL” value [1, 18] was 0 (0) n (%). For the same compound, the “Trough concentration lower than the target range” value [1, 18] was 6 (54.5) n (%), the “Trough concentration higher than 15 ng/mL” value [1, 19] was 0 (0) n (%) and the “Trough concentration lower than 5 ng/mL” value [1, 19] was 0 (0) n (%). The “Trough concentration lower than the target range” value [1, 19] was 1 (8.3) n (%), the “Trough concentration higher than 15 ng/mL” value [1, 20] was 0 (0) n (%) and the “Trough concentration lower than 5 ng/mL” value [1, 20] was 0 (0) n (%). The “Trough concentration lower than the target range” value [1, 20] was 3 (33.3) n (%), the “Trough concentration higher than 15 ng/mL” value [1, 21] was 0 (0) n (%) and the “Trough concentration lower than 5 ng/mL” value [1, 21] was 0 (0) n (%). For the same compound, the “Trough concentration lower than the target range” value [1, 21] was 2 (25.0) n (%), the “Trough concentration higher than 15 ng/mL” value [1, 22] was 0 (0) n (%) and the “Trough concentration lower than 5 ng/mL” value [1, 22] was 0 (0) n (%). The “Trough concentration lower than the target range” value [1, 22] was 12 (30.0) n (%), the Tremor ([2]; during 3 months after transplantation, 40 KTRs) was “No study patients reported tremor” and the “Biopsy-proven acute rejection (BPAR)” value ([2]; during 3 months after transplantation, 40 KTRs on tacrolimus-based regimen, one in EXdtz, one in NEplb) was 5%. The Post-transplant diabetes mellitus ([2]; during 3 months after transplantation, 40 KTRs, one in EXplb, one in EXdtz) was 5% and the “DGF, suspected rejection, or BPAR” value ([2]; first week post-KT, 40 KTRs on tacrolimus-based regimen) was “None”.
